# According to publication PMC7972864, “Fucoxanthin Prevents 6-OHDA-Induced Neurotoxicity by Targeting Keap1” (Oxidative Medicine and Cellular Longevity, 2021):
# Target: Keap1 (Homo sapiens, UniProt Q14145)
# Assay: biolayer interferometry (Octet K2), biotinylated human Keap1 on the sensor
# Format: binding
# Sequence of Keap1 (Q14145 whole entry): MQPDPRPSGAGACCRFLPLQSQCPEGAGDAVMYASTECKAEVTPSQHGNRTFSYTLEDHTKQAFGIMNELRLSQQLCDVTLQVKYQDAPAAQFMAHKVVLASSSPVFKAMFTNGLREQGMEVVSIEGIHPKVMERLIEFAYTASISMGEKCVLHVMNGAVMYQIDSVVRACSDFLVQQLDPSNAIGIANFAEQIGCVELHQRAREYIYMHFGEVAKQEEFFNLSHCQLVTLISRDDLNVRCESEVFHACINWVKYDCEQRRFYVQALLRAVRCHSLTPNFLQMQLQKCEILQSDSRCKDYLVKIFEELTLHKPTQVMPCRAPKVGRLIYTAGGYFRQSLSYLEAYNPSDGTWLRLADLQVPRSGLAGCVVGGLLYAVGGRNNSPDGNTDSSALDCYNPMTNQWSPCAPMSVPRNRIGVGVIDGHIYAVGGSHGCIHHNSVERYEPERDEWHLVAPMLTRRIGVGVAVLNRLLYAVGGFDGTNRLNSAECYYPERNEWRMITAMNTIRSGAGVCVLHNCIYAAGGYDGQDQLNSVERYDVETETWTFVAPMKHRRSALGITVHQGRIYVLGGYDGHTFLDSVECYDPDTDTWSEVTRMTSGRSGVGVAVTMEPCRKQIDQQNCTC
smiles,measurement,value
"CC(=O)O[C@H]1CC(C)(C)C(=C=C/C(C)=C/C=C/C(C)=C/C=C/C=C(C)/C=C/C=C(\C)C(=O)C[C@@]23O[C@]2(C)C[C@@H](O)CC3(C)C)[C@](C)(O)C1 [FUC, fucoxanthin]",Kd,5.16E − 5
